The values below come from patent US10752612B2, “PLK4 inhibitors” (LUDWIG INSTITUTE FOR CANCER RESEARCH LTD, priority 2015, dated 2020).

pIC50: −log10 of the molar value.

The target in the experiment is T1, human Plk4 kinase domain (aa 2-275) (Homo sapiens, UniProt O00444).
T1 construct: purified 6×His-tagged human Plk4 kinase domain (aa 2-275); 6xHis; made in house; host or cells: E. coli
T1 sequence (O00444 2-275): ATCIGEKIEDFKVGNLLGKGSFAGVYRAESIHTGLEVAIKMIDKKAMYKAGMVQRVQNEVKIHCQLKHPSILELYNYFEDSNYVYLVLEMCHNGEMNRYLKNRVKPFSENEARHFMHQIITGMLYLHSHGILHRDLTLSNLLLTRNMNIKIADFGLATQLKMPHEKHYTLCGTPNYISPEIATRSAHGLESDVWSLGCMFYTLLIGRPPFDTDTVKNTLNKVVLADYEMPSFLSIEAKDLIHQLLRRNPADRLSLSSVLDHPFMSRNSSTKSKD
Description: Plk4 kinase assay (ADP-Glo). Conditions: Table 1. The format is biochemical. The essentials:
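Enzyme at 2.5-10 nM final, pH 8.0, reacted 4-16 hours at 25° C; ADP generation read by ADP-Glo luminescence. Ki derived from IC50 by Cheng-Prusoff or, for tight binders, Copeland formalism.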
As usually defined, the pIC50 is the IC50 on a negative log10 scale, so that one unit is a factor of ten. Regarding `Cc1cc(Nc2nc(Sc3ccc(NC(=O)C4CC4)cc3)nc(N3CCN(C)CC3)c2CO)n[nH]1`, the pIC50 is 6.00 to 7.00.
`Cc1cc(Nc2nc(Sc3ccc(NC(=O)C4CC4)cc3)nc(N3CCOCC3)c2C)n[nH]1` showed a pIC50 greater than 6.00.
As to `COc1c(C)nc(Sc2ccc(NC(=O)C3CC3)cc2)nc1Nc1cc(C)[nH]n1`, the pIC50 was greater than 6.00.
The molecule `Cc1cc(Nc2nc(Sc3ccc(NC(=O)C4CC4)cc3)nc3c2C(C)CC3)n[nH]1` (stereo not drawn) had a pIC50 greater than 6.00.
Turning to `Cc1cc(Nc2nc(Sc3ccc(NC(=O)C4CC4)cc3)nc(N3CCN(C(C)C)CC3)c2C)n[nH]1`, the pIC50 was greater than 6.00.
The molecule `CC(=O)N1CCN(c2nc(Sc3ccc(NC(=O)C4CC4)cc3)nc(Nc3cc(C)[nH]n3)c2C)CC1` showed a pIC50 greater than 6.00.
For `COCCN1CCN(c2nc(Sc3ccc(NC(=O)C4CC4)cc3)nc(Nc3cc(C)[nH]n3)c2C)CC1` the value was greater than 6.00; for `Cc1cc(Nc2nc(Sc3ccc(NC(=O)C4CC4)cc3)nc(N3CCN(C)C(C)C3)c2C)n[nH]1` (stereo not drawn), greater than 6.00; for `COc1c(Nc2cc(C)[nH]n2)nc(Sc2ccc(NC(=O)C3CC3)cc2)nc1N1CCN(CC2CC2)CC1`, greater than 6.00.
To `CNCCN1CCN(c2nc(Sc3ccc(NC(=O)C4CC4)cc3)nc(Nc3cc(C)[nH]n3)c2OC)CC1` belongs greater than 6.00; to `COc1c(Nc2cc(C)[nH]n2)nc(Sc2ccc(NC(=O)C3CC3)cc2)nc1N1CCN(c2ccccc2)CC1`, 6.00 to 7.00; to `CCOc1c(Nc2cc(C)[nH]n2)nc(Sc2ccc(NC(C)=O)cc2)nc1N1CCCCC1`, 6.00 to 7.00.
For `CCOc1c(Nc2cc(C)[nH]n2)nc(Sc2ccc(NC(C)=O)cc2)nc1N1CCNCC1` the value was 6.00 to 7.00; for `CCOc1c(Nc2cc(C)[nH]n2)nc(Sc2ccc(NC(C)=O)cc2)nc1N1CCOCC1`, 6.00 to 7.00; for `CCOc1c(Nc2cc(C)[nH]n2)nc(Sc2ccc(NC(C)=O)cc2)nc1N(CC)CC`, 6.00 to 7.00.
`CCOc1c(Nc2cc(C)[nH]n2)nc(Sc2ccc(NC(C)=O)cc2)nc1N(C)CC` showed a pIC50 of 6.00 to 7.00.
`CCOc1c(Nc2cc(C)[nH]n2)nc(Sc2ccc(NC(C)=O)cc2)nc1N1CCN(C(C)=O)CC1` had a negative-log IC50 (pIC50) of 6.00 to 7.00.
For `CCOc1c(Nc2cc(C)[nH]n2)nc(Sc2ccc(NC(C)=O)cc2)nc1N1CCN(CCOC)CC1` the value was 6.00 to 7.00; for `CCOc1c(Nc2cc(C)[nH]n2)nc(Sc2ccc(NC(C)=O)cc2)nc1N1CCN(CCN(C)C)CC1`, 6.00 to 7.00; for `CCOc1c(Nc2cc(C)[nH]n2)nc(Sc2ccc(NC(=O)C3CCCC3)cc2)nc1N1CCCCC1`, 6.00 to 7.00.
For `CCOc1c(Nc2cc(C)[nH]n2)nc(Sc2ccc(NC(=O)C3CCCC3)cc2)nc1N1CCNCC1` the value was 6.00 to 7.00.
To `CCOc1c(Nc2cc(C)[nH]n2)nc(Sc2ccc(NC(=O)C3CCCC3)cc2)nc1N1CCOCC1` belongs 6.00 to 7.00.
In the case of `CCOc1c(Nc2cc(C)[nH]n2)nc(Sc2ccc(NC(=O)C3CCCC3)cc2)nc1N(CC)CC`, the negative logarithm of the IC50 (pIC50) is less than 6.00.
For `CCOc1c(Nc2cc(C)[nH]n2)nc(Sc2ccc(NC(=O)C3CCCC3)cc2)nc1N(C)CC` the value was 6.00 to 7.00; for `CCOc1c(Nc2cc(C)[nH]n2)nc(Sc2ccc(NC(=O)C3CCCC3)cc2)nc1N1CCN(C(C)=O)CC1`, 6.00 to 7.00; for `CCOc1c(Nc2cc(C)[nH]n2)nc(Sc2ccc(NC(=O)C3CCCC3)cc2)nc1N1CCN(CCOC)CC1`, 6.00 to 7.00.
To `CCOc1c(Nc2cc(C)[nH]n2)nc(Sc2ccc(NC(=O)C3CCCC3)cc2)nc1N1CCN(CCN(C)C)CC1` belongs 6.00 to 7.00; to `COc1c(Nc2cc(C)[nH]n2)nc(Sc2ccc(NC(=O)C3CC3)cc2)nc1NC1CCNCC1`, 6.00 to 7.00; to `CCC1CCc2nc(Sc3ccc(NC(=O)C4CC4)cc3)nc(Nc3cc(C)[nH]n3)c21` (stereo not drawn), greater than 6.00.
For `Cc1cc(Nc2nc(Sc3ccc(NC(=O)C4CCC4)cc3)nc(N3CCN(C)CC3)c2C)n[nH]1` the value was greater than 6.00; for `CC(=O)Nc1ccc(Sc2nc(Nc3cc(C)[nH]n3)c(C)c(N3CCN(C)CC3)n2)cc1`, greater than 6.00.
The molecule `CCOc1c(Nc2cc(C)[nH]n2)nc(Sc2ccc(NC(=O)C3CC3)cc2)nc1N1CCN(C(=O)COC)CC1` gave a pIC50 of 6.00 to 7.00.
For `CCOc1c(Nc2cc(C)[nH]n2)nc(Sc2ccc(NC(=O)C3CC3)cc2)nc1N1CCN(C(=O)CCN(C)C)CC1` the value was 6.00 to 7.00; for `CCOc1c(Nc2cc(C)[nH]n2)nc(Sc2ccc(NC(=O)C3CC3)cc2)nc1N1CCN(C(=O)CCOC)CC1`, 6.00 to 7.00.
To `CCOc1c(Nc2cc(C)[nH]n2)nc(Sc2ccc(NC(=O)C3CC3)cc2)nc1N1CCN(C2CCN(C)CC2)CC1` belongs 6.00 to 7.00; to `CCOc1c(Nc2cc(C)[nH]n2)nc(Sc2ccc(NC(=O)C3CC3)cc2)nc1N1CCN(CC2CC2)CC1`, 6.00 to 7.00; to `CCOc1c(Nc2cc(C)[nH]n2)nc(Sc2ccc(NC(=O)C3CCCC3)cc2)nc1N1CCN(C(=O)CN(C)C)CC1`, 6.00 to 7.00.
For `CCOc1c(Nc2cc(C)[nH]n2)nc(Sc2ccc(NC(=O)C3CCCC3)cc2)nc1N1CCN(C(=O)COC)CC1` the value was 6.00 to 7.00.
In turn, `CCOc1c(Nc2cc(C)[nH]n2)nc(Sc2ccc(NC(=O)C3CCCC3)cc2)nc1N1CCN(C(=O)CCOC)CC1` showed a pIC50 of 6.00 to 7.00.
For `CCOc1c(Nc2cc(C)[nH]n2)nc(Sc2ccc(NC(=O)C3CCCC3)cc2)nc1N1CCN(C2CCN(C)CC2)CC1` the value was 6.00 to 7.00; for `CCOc1c(Nc2cc(C)[nH]n2)nc(Sc2ccc(NC(=O)C3CCCC3)cc2)nc1N1CCN(CC2CC2)CC1`, 6.00 to 7.00; for `COc1c(Nc2cc(C)[nH]n2)nc(Sc2ccc(NC(=O)C3CC3)cc2)nc1NC1CCN(C)CC1`, 6.00 to 7.00.
Regarding `CCOc1c(Nc2cc(C)[nH]n2)nc(Sc2ccc(NC(=O)C3CC3)cc2)nc1N1CCN(C(=O)CN(C)C)CC1`, the negative-log IC50 (pIC50) is 6.00 to 7.00.
For `CCOc1c(Nc2cc(C)[nH]n2)nc(Sc2ccc(NC(=O)C3CC3)cc2)nc1N1CCN(C2CCNCC2)CC1` the value was 6.00 to 7.00; for `CCOc1c(Nc2cc(C)[nH]n2)nc(Sc2ccc(NC(C)=O)cc2)nc1N1CCN(C)CC1`, 6.00 to 7.00.
Take `CCOc1c(Nc2cc(C)[nH]n2)nc(Sc2ccc(NC(C)=O)cc2)nc1N(C)C`: the pIC50 was 6.00 to 7.00.
For `CCOc1c(Nc2cc(C)[nH]n2)nc(Sc2ccc(NC(=O)C3CCCC3)cc2)nc1N1CCN(C2CCNCC2)CC1` the value was 6.00 to 7.00.
To `CCOc1c(Nc2cc(C)[nH]n2)nc(Sc2ccc(NC(=O)C3CCCC3)cc2)nc1N1CCN(C)CC1` belongs 6.00 to 7.00; to `CCOc1c(Nc2cc(C)[nH]n2)nc(Sc2ccc(NC(=O)C3CCCC3)cc2)nc1N(C)C`, 6.00 to 7.00.
With `CC(=O)Nc1ccc(Sc2nc(Nc3cc(C)[nH]n3)c(C)c(N3CCN(CCN(C)C)CC3)n2)cc1`, the negative logarithm of the IC50 (pIC50) is greater than 6.00.
To `COCCN1CCN(c2nc(Sc3ccc(NC(C)=O)cc3)nc(Nc3cc(C)[nH]n3)c2C)CC1` belongs greater than 6.00; to `CC(=O)Nc1ccc(Sc2nc(Nc3cc(C)[nH]n3)c(C)c(N3CCN(C(C)=O)CC3)n2)cc1`, greater than 6.00; to `CC(=O)Nc1ccc(Sc2nc(Nc3cc(C)[nH]n3)c(C)c(N3CCNCC3)n2)cc1`, greater than 6.00.
For `CC(=O)Nc1ccc(Sc2nc(Nc3cc(C)[nH]n3)c(C)c(N3CCOCC3)n2)cc1` the value was greater than 6.00; for `CC(=O)Nc1ccc(Sc2nc(Nc3cc(C)[nH]n3)c(C)c(N3CCN(C4CCN(C)CC4)CC3)n2)cc1`, greater than 6.00; for `Cc1cc(Cc2nc(Sc3ccc(NC(=O)C4CCCC4)cc3)nc(N3CCN(CCN(C)C)CC3)c2C)n[nH]1`, greater than 6.00.
`COCCN1CCN(c2nc(Sc3ccc(NC(=O)C4CCCC4)cc3)nc(Cc3cc(C)[nH]n3)c2C)CC1` had a pIC50 greater than 6.00.
To `CC(=O)N1CCN(c2nc(Sc3ccc(NC(=O)C4CCCC4)cc3)nc(Nc3cc(C)[nH]n3)c2C)CC1` belongs greater than 6.00.
To `Cc1cc(Nc2nc(Sc3ccc(NC(=O)C4CCCC4)cc3)nc(N3CCNCC3)c2C)n[nH]1` belongs greater than 6.00; to `Cc1cc(Nc2nc(Sc3ccc(NC(=O)C4CCCC4)cc3)nc(N3CCOCC3)c2C)n[nH]1`, greater than 6.00; to `Cc1cc(Nc2nc(Sc3ccc(NC(=O)C4CCCC4)cc3)nc(N3CCN(C4CCN(C)CC4)CC3)c2C)n[nH]1`, greater than 6.00.
To `COc1c(Nc2cc(C)[nH]n2)nc(Sc2ccc(NC(C)=O)cc2)nc1N1CCCCC1` belongs greater than 6.00.
`CCOc1c(Nc2cc(C)[nH]n2)nc(Sc2ccc(NC(=O)C3CCCC3)cc2)nc1N1CCN(C(=O)CCN(C)C)CC1` had a negative-log IC50 (pIC50) of less than 6.00.
As to `CCSc1c(Nc2cc(C)[nH]n2)nc(Sc2ccc(NC(=O)C3CC3)cc2)nc1N1CCN(C)CC1`, the negative logarithm of the IC50 (pIC50) is 6.00 to 7.00.
As to `CC(=O)Nc1ccc(Sc2nc(Nc3cc(C)[nH]n3)c(C)c(N(C)C(C)C)n2)cc1`, the negative-log IC50 (pIC50) was greater than 6.00.
For `CC(=O)Nc1ccc(Sc2nc(Nc3cc(C)[nH]n3)c(C)c(N3CCN(C(=O)CCN(C)C)CC3)n2)cc1` the value was greater than 6.00; for `COCC(=O)N1CCN(c2nc(Sc3ccc(NC(C)=O)cc3)nc(Nc3cc(C)[nH]n3)c2C)CC1`, greater than 6.00; for `Cc1cc(Nc2nc(Sc3ccc(NC(=O)C4CCCC4)cc3)nc(N(C)C(C)C)c2C)n[nH]1`, greater than 6.00.
`COCC(=O)N1CCN(c2nc(Sc3ccc(NC(=O)C4CCCC4)cc3)nc(Nc3cc(C)[nH]n3)c2C)CC1` showed a negative logarithm of the IC50 (pIC50) greater than 6.00.
For `Cc1cc(Nc2nc(Sc3ccc(NC(=O)C4CCCC4)cc3)nc(N3CCCCC3)c2C)n[nH]1` the value was greater than 6.00; for `CCN(CC)c1nc(Sc2ccc(NC(=O)C3CCCC3)cc2)nc(Nc2cc(C)[nH]n2)c1C`, 6.00 to 7.00; for `CCN(C)c1nc(Sc2ccc(NC(=O)C3CCCC3)cc2)nc(Nc2cc(C)[nH]n2)c1C`, greater than 6.00.
